Target: ATR-interacting protein/Serine/threonine-protein kinase ATR (Homo sapiens, UniProt Q13535)
Assay: ATR/ATRIP Kinase Assay
Protocol: The ATR/ATRIP enzymatic assay is performed as a TR-FRET-(HTRF™, Cisbio Bioassays) based 384-well assay. In a first step, purified human recombinant ATR/ATRIP (human ATR, full length, GenBank ID: NM_001184.3, and human ATRIP, full length, GenBank ID AF451323.1, co-expressed in a mammalian cell line) is incubated in assay buffer for 15 minutes at 22° C. with test compound at different concentrations or without test compound (as a negative control). The assay buffer contains 25 mM HEPES pH 8.0, 10 mM Mg(CH3COO)2, 1 mM MnCl2, 0.1% BSA, 0.01% Brij 35, and 5 mM dithiothreitol (DTT). An Echo 555 (Labcyte) is used for dispensing of compound solutions. […] The generation of phosphorylated p53 as a result of the ATR mediated reaction in the presence of ATP is detected by using specific antibodies [labeled with the fluorophores europium (Eu) as donor and d2 as acceptor (Cisbio Bioassays)] enabling FRET. […] Following signal development for 2 h the plates are analyzed in an EnVision (PerkinElmer) microplate reader using the TRF mode with laser excitation. Upon excitation of the donor europium at 340 nm the emitted fluorescence light of the acceptor d2 at 665 nm as well as from the donor Eu at 615 nm are measured. The amount of phosphorylated p53 is directly proportional to the ratio of the amounts of emitted light i.e. the ratio of the relative fluorescence units (rfu) at 665 nm and 615 nm. […]

ATR-interacting protein/Serine/threonine-protein kinase ATR, sequence (Q8WXE1 whole entry): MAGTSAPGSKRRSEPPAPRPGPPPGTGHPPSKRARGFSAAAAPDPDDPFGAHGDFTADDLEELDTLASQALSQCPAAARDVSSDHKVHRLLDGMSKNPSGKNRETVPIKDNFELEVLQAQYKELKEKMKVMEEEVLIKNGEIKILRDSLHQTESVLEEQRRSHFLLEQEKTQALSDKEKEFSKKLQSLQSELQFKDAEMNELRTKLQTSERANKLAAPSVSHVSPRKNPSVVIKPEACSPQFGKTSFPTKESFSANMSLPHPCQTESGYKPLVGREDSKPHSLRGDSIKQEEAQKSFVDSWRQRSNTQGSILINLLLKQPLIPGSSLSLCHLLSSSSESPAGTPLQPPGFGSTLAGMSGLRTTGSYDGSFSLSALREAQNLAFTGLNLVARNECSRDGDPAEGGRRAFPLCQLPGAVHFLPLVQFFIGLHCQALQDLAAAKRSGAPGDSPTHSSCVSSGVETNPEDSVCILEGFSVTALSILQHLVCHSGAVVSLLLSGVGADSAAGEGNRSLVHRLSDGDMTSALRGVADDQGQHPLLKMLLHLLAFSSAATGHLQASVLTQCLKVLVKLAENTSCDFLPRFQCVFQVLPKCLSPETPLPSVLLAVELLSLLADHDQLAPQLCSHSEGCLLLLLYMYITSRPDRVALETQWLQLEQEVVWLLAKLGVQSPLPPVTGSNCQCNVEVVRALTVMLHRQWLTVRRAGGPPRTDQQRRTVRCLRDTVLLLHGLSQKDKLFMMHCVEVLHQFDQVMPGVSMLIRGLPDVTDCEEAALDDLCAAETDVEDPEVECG
ATR-interacting protein/Serine/threonine-protein kinase ATR, sequence (Q13535 whole entry): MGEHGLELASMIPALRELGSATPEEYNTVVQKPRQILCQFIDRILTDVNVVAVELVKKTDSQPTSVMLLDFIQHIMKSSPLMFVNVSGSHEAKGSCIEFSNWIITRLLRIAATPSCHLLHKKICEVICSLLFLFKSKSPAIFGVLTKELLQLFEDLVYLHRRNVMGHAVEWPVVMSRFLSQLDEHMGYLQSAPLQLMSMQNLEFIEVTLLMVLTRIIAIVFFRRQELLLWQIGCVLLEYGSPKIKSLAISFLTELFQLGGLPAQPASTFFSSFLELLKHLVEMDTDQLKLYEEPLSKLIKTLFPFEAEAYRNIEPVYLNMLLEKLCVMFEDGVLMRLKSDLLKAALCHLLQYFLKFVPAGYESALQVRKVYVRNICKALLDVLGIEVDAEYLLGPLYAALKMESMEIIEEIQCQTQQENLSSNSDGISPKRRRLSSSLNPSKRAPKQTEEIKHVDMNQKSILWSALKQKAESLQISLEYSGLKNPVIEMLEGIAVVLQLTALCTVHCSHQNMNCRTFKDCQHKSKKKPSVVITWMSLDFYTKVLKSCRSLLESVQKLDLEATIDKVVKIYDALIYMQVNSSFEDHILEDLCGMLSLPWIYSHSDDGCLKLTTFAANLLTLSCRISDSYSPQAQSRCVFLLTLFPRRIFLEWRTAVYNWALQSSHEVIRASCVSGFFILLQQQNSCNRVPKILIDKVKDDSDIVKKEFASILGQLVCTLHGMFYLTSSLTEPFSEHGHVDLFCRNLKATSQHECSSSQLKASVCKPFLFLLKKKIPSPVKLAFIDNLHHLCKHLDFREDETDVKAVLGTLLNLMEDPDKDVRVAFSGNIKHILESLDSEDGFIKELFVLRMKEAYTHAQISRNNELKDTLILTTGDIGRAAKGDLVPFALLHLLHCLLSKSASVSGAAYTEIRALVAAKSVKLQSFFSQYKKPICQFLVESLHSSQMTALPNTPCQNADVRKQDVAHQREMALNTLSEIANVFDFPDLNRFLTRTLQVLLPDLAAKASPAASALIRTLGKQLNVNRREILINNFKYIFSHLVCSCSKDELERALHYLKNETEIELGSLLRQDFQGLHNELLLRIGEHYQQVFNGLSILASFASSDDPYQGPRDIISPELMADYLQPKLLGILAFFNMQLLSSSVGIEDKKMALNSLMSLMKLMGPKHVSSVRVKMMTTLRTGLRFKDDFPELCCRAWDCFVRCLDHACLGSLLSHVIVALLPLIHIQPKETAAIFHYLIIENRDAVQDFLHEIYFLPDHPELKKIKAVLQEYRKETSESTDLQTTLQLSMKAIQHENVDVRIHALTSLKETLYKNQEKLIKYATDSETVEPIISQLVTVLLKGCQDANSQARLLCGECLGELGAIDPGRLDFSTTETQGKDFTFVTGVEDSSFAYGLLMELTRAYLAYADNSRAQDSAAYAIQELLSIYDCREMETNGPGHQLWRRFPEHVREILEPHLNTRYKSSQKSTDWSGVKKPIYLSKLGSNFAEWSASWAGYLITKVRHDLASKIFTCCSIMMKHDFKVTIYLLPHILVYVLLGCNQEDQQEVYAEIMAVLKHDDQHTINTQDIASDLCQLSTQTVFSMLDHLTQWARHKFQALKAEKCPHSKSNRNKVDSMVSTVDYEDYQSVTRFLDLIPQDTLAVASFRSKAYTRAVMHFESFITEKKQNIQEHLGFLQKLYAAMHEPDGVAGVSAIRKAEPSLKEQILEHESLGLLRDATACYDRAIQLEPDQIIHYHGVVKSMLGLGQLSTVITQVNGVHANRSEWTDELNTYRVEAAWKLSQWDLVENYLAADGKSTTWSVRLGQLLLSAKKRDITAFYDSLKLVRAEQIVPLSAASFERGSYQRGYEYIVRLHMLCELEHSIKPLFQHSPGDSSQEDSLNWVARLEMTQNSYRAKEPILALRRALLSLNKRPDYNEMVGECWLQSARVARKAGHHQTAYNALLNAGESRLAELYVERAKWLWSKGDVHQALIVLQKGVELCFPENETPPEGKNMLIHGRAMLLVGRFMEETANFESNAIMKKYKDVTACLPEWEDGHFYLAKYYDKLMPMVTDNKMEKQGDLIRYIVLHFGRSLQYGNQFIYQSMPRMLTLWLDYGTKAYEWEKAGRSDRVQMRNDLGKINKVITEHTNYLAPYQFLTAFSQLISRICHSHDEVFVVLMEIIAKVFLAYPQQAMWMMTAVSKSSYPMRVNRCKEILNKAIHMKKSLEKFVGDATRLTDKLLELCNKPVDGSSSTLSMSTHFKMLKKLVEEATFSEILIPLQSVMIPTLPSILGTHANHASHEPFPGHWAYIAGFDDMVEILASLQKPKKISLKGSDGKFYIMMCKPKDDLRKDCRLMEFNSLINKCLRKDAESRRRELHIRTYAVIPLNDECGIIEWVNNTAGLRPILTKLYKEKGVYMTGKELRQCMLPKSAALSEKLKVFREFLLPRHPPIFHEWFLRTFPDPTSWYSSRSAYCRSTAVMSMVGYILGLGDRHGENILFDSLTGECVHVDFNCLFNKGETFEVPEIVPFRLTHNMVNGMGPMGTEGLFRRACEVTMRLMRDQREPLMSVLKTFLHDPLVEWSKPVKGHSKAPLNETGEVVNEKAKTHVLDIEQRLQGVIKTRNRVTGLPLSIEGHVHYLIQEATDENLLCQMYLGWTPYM

`C[C@@H]1COCCN1c1cc(C2CCS(=O)(=O)CC2)c2c(n1)c(-c1ccn[nH]1)nn2C` [US12371430, Compound 82] was tested, and the IC50 was 0.8 nM.

Source: BindingDB's records for patent US12371430 (Merck Patent, 2025)
